Results: US20020162794A1, “Anaerobic digestion” (priority 2001, published 2002)

Columns and labels:
[1] = tested on: anaerobic mixed culture (domestic sewage); experiment: Anaerobic digestion of domestic sewage, overall effect of formate salt concentration; settings: for effect on anaerobic digestion over the tested concentration range: 10 mg/L to 100,000 mg/L based on the organic matter available for digestion
Procedure: The various formate salts include, but are not limited to sodium formate (NaHCOO), potassium formate (KHCOO), ammonium formate (NH4COO), calcium formate (Ca(HCOO)2), and others either singly or in combination. These formate salts have been tested for concentrations ranging from 10 mg/L (˜10 ppm) to as high as […] (100,000 mg/L) based on the organic matter available for digestion.
Two tests were run in which sodium formate in concentrations ranging from a few parts per million (ppm) up to ten percent (10%) on a mass basis were added to samples taken from a publicly owned anaerobic digester. The samples were first cultured in laboratory sized batch reactors. The twelve batch reactors were then sampled, and studied for periods of up to fifty-five days. The process variables that were monitored included COD (Chemical Oxygen Demand), TS (Total Solids), TVS (Total Volatile Solids) and the pH of the culture. Time and the initial sodium formate concentration level were the independent variables. Finally measurements were also made of the bacterial counts at the beginning and at the end of the fifty five day period.
Municipal sludge from the city of Lubbock, Wastewater Treatment Plant was digested in 12 batch digesters. Using twelve batch reactors allowed the collection of control reactors data (i.e., no formate in the reactors) in triplicate, titration studies of increasing formate concentration, and duplicates/triplicates of varying formate concentration. Experiments were conducted in the laboratories of Texas Tech University.

[2] = tested on: microorganisms in domestic sewage; settings: sodium chloride spike; cited from earlier work

Row | SMILES | effect on anaerobic digestion over the tested concentration range [1] | concentration range of greatest effects ([1]; 10 mg/L to 100,000 mg/L tested) | toxicity of sodium levels [2]
1 | O=C[O-].[K+] [potassium formate] | beneficial at all concentration levels | greatest effects being observed over the 100 ppm to the 2,000-mg/L range | –
2 | N.O=CO [ammonium formate] | initiate the inhibition of digestion at concentrations above a few thousand mg/L | – | –
3 | [Cl-].[Na+] [sodium chloride] | – | – | toxic to all microorganisms in domestic sewage at levels above three to four percent
